According to US8124641B2, “Aminotetrahydroindazoloacetic acids” (Hoffmann-La Roche Inc., priority 2008, dated 2012):
pIC50: −log10 of the molar value.

Biological target: T1, human CRTH2 (Homo sapiens, UniProt Q9Y5Y4)
T1 construct: expressed in transfected cells
T1 sequence (Q9Y5Y4 1-395): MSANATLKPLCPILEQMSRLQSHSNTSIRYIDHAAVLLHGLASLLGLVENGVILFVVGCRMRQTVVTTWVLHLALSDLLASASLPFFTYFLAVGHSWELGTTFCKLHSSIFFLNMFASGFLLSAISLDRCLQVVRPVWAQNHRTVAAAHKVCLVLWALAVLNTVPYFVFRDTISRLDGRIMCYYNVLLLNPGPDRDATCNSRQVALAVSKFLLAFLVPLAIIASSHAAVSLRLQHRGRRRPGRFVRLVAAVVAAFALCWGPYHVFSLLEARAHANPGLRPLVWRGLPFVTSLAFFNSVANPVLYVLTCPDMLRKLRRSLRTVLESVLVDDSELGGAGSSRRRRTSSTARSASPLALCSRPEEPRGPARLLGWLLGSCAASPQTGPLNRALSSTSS
Test: Human CRTH2 Receptor Binding Assay (whole cell, [3H]ramatroban competition)
Settings: CHO-K1 cells stably expressing human CRTH2 and G-alpha16; 20 nM [3H]ramatroban; 1 hour, room temperature
Source text: A whole cell receptor binding assay using [^3H]ramatroban as the competing radioactive ligand was employed to evaluate the compound binding activity to human CRTH2. The radioactive ligand [^3H]ramatroban was synthesized according to Sugimoto et. al. (Eur. J. Pharmacol. 524, 30-37, 2005) to a specific activity of 42 Ci/mmol.
A cell line stably expressing human CRTH2 was established by transfecting CHO-K1 cells with two mammalian expression vectors that harbored human CRTH2 and G-alpha16 cDNAs, respectively, using FuGene® 6 transfection reagent (from Roche). Stable clones expressing CRTH2 were selected by staining each clone with BM16 (BD Pharmingen™ from BD Biosciences, a division of Becton, Dickinson and Company), which is a rat monoclonal antibody to human CRTH2. The cells were maintained as monolayer cultures in Ham's F-12 medium containing 10% fetal bovine serum, 100 units/mL penicillin, 100 μg/mL streptomycin, 2 mM glutamine, 0.5 mg/mL G418 (geneticin) for CRTH2, and 0.2 mg/mL hygromycin-B (for G-alpha 16). For whole cell receptor binding assay, the monolayer cells were rinsed once with PBS (phosphate buffered saline), dissociated using ethylenediaminetetraacetate (Versene™ EDTA from Lonza Inc.), and suspended in PBS containing 10 mM MgCl2 and 0.06% BSA (bovine serum albumin) at 1.5×10^6 cells/mL.
The binding reactions (0.2 mL) were performed in 96-well plates at room temperature in PBS containing 1.5×10^5 cells, 10 mM MgCl2, 0.06% BSA, 20 nM [^3H]ramatroban, and test compound at various concentrations. After 1 hour of binding reactions, the cells were harvested on GF™/B filter microplates (microtiter plates with embedded glass fiber from PerkinElmer, Inc.) and washed 5 times with PBS using a Filtermate™ Harvester (a cell harvester that harvests and washes cells from microplates from PerkinElmer, Inc.). The radioactivities bound to the cells were determined using a microplate scintillation counter (TopCount® NXT, from PerkinElmer, Inc.) after adding 50 μL of Microscint™ 20 scintillation fluid (from PerkinElmer, Inc.) to each well of the filter plates. The radioactivity from non-specific binding was determined by replacing compound with 10 μM of 15(R)-15-methyl PGD2 (from Cayman Chemical Company) in the reaction mixtures. The radioactivity bound to the cells in the absence of compound (total binding) was determined by replacing compound with 0.25% of DMSO (dimethyl sulfoxide) in the reaction mixture. Specific binding data were obtained by subtracting the radioactivity of non-specific binding from each binding data.
The IC50 value is defined as the concentration of the tested compound that is required for 50% inhibition of total specific binding. In order to calculate the IC50 value, the percent inhibition data were determined for 7 concentrations for each compound. The percent inhibition for a compound at each concentration was calculated according to the following formula, [1−(specific binding in the presence of compound)/(total specific binding)]×100. The IC50 value was then obtained by fitting the percent inhibition data to a sigmoidal dose-response (4 parameter logistic) model in the XLfit® software Excel add-in program [from ID Business Solutions Ltd., model 205, where F(x)=(A+(B−A)/(1+((C/x)^D)))].

With `CCS(=O)(=O)c1cc(C(F)(F)F)cc(S(=O)(=O)N(C)[C@@H]2CCCc3c2cnn3CC(=O)O)c1` [Example 10-1a, {(R)-4-[(3-Ethanesulfonyl-5-trifluoromethyl-benzenesulfonyl)-methyl-amino]-4,5,6,7-tetrahydro-indazol-1-yl}-acetic acid] as the compound, how does the pIC50 read?
The pIC50 was 8.60.

How did the pIC50 turn out when `CN([C@@H]1CCCc2c1cnn2CC(=O)O)S(=O)(=O)c1cc(C(F)(F)F)cc(S(=O)(=O)C2CCCC2)c1` [Example 10-2a, {(R)-4-[(3-Cyclopentanesulfonyl-5-trifluoromethyl-benzenesulfonyl)-methyl-amino]-4,5,6,7-tetrahydro-indazol-1-yl}-acetic acid] was run?
The pIC50 was 8.54.

How did the pIC50 turn out when `CC(C)S(=O)(=O)c1cc(C(F)(F)F)cc(S(=O)(=O)N(C)[C@@H]2CCCc3c2cnn3CC(=O)O)c1` [Example 10-3a, ((R)-4-{Methyl-[3-(propane-2-sulfonyl)-5-trifluoromethyl-benzenesulfonyl]-amino}-4,5,6,7-tetrahydro-indazol-1-yl)-acetic acid] was run?
The pIC50 was 8.68.

`CN([C@@H]1CCCc2c1cnn2CC(=O)O)S(=O)(=O)c1cc(C(F)(F)F)cc(S(=O)(=O)C(C)(C)C)c1` [Example 10-4a, ((R)-4-{Methyl-[3-(2-methyl-propane-2-sulfonyl)-5-trifluoromethyl-benzenesulfonyl]-amino}-4,5,6,7-tetrahydro-indazol-1-yl)-acetic acid] was tested. Which pIC50 did it give?
Its pIC50 is 8.33.

How did the pIC50 turn out when `CC(C)S(=O)(=O)c1cc(C(F)(F)F)cc(S(=O)(=O)N(C)[C@@H]2CCCc3c2cnn3CCC(=O)O)c1` [Example 10-5a, 3-((R)-4-{Methyl-[3-(propane-2-sulfonyl)-5-trifluoromethyl-benzenesulfonyl]-amino}-4,5,6,7-tetrahydro-indazol-1-yl)-propionic acid] was run?
Its pIC50 is 8.62.

How did the pIC50 turn out when `CN([C@@H]1CCCc2c1cnn2CCC(=O)O)S(=O)(=O)c1cc(C(F)(F)F)cc(S(=O)(=O)C2CCCC2)c1` [Example 10-6a, 3-{(R)-4-[(3-Cyclopentanesulfonyl-5-trifluoromethyl-benzenesulfonyl)-methyl-amino]-4,5,6,7-tetrahydro-indazol-1-yl}-propionic acid] was run?
The pIC50 was 8.48.

With `CN([C@@H]1CCCc2c1cnn2CCC(=O)O)S(=O)(=O)c1cc(C(F)(F)F)cc(S(=O)(=O)C(C)(C)C)c1` [Example 10-7a, 3-((R)-4-{Methyl-[3-(2-methyl-propane-2-sulfonyl)-5-trifluoromethyl-benzenesulfonyl]-amino}-4,5,6,7-tetrahydro-indazol-1-yl)-propionic acid] as the compound, how does the pIC50 read?
The pIC50 was 7.90.

How did the pIC50 turn out when `CC1(c2cc(C(F)(F)F)cc(S(=O)(=O)N[C@@H]3CCCc4c3cnn4CC(=O)O)c2)CC1` [Example 11-1a, {(R)-4-[3-(1-Methyl-cyclopropyl)-5-trifluoromethyl-benzenesulfonylamino]-4,5,6,7-tetrahydro-indazol-1-yl}-acetic acid] was run?
Its pIC50 is 8.11.

How did the pIC50 turn out when `CC(C)c1cc(C(F)(F)F)cc(S(=O)(=O)N[C@@H]2CCCc3c2cnn3CC(=O)O)c1` [Example 12-1a, (R)-[4-(3-Isopropyl-5-trifluoromethyl-benzenesulfonylamino)-4,5,6,7-tetrahydro-indazol-1-yl]-acetic acid] was run?
Its pIC50 is 7.66.

How did the pIC50 turn out when `CC(C)c1cc(C(F)(F)F)cc(S(=O)(=O)N(C)[C@@H]2CCCc3c2cnn3CC(=O)O)c1` [Example 13-1a, {(R)-4-[(3-isopropyl-5-trifluoromethyl-benzenesulfonyl)-methyl-amino]-4,5,6,7-tetrahydro-indazol-1-yl}-acetic acid] was run?
The pIC50 was 8.14.

`CN([C@@H]1CCCc2c1cnn2CC(=O)O)S(=O)(=O)c1cc(C(F)(F)F)cc(C2(C)CC2)c1` [Example 14-1a, ((R)-4-{Methyl-[3-(1-methyl-cyclopropyl)-5-trifluoromethyl-benzenesulfonyl]-amino}-4,5,6,7-tetrahydro-indazol-1-yl)-acetic acid] was tested. Which pIC50 did it give?
Its pIC50 is 8.21.

How did the pIC50 turn out when `CCC1(c2cc(C(F)(F)F)cc(S(=O)(=O)N(C)[C@@H]3CCCc4c3cnn4CC(=O)O)c2)CC1` [Example 15-1a, ((R)-4-{[3-(1-Ethyl-cyclopropyl)-5-trifluoromethyl-benzenesulfonyl]-methyl-amino}-4,5,6,7-tetrahydro-indazol-1-yl)-acetic acid] was run?
Its pIC50 is 7.91.

With `C#Cc1cc(C(F)(F)F)cc(S(=O)(=O)NC2CCCc3c2cnn3CC(=O)O)c1` (stereo not shown) [Example 16-1a, [4-(3-Ethynyl-5-trifluoromethyl-benzenesulfonylamino)-4,5,6,7-tetrahydro-indazol-1-yl]-acetic acid] as the compound, how does the pIC50 read?
The pIC50 was 7.16.

With `CN([C@@H]1CCCc2c1cnn2CC(=O)O)S(=O)(=O)c1cc(C(F)(F)F)cc([Si](C)(C)C)c1` [Example 17-1a, {(R)-4-[Methyl-(3-trifluoromethyl-5-trimethylsilanyl-benzenesulfonyl)-amino]-4,5,6,7-tetrahydro-indazol-1-yl}-acetic acid] as the compound, how does the pIC50 read?
Its pIC50 is 7.25.

How did the pIC50 turn out when `CN([C@@H]1CCCc2c1cnn2CC(=O)O)S(=O)(=O)c1cc(C2CCCC2)cc(C(F)(F)F)c1` [Example 18-1a, {(R)-4-[(3-Cyclopentyl-5-trifluoromethyl-benzenesulfonyl)-methyl-amino]-4,5,6,7-tetrahydro-indazol-1-yl}-acetic acid] was run?
Its pIC50 is 7.54.

With `CC(=O)c1cc(C(F)(F)F)cc(S(=O)(=O)N(C)[C@@H]2CCCc3c2cnn3CC(=O)O)c1` [Example 19-1a, {(R)-4-[(3-Acetyl-5-trifluoromethyl-benzenesulfonyl)-methyl-amino]-4,5,6,7-tetrahydro-indazol-1-yl}-acetic acid] as the compound, how does the pIC50 read?
Its pIC50 is 8.15.

With `CN([C@@H]1CCCc2c1cnn2CC(=O)O)S(=O)(=O)c1cc(C(C)(F)F)cc(C(F)(F)F)c1` [Example 20-1a, ((R)-4-{[3-(1,1-Difluoro-ethyl)-5-trifluoromethyl-benzenesulfonyl]-methyl-amino}-4,5,6,7-tetrahydro-indazol-1-yl)-acetic acid] as the compound, how does the pIC50 read?
The pIC50 was 8.46.

`CN([C@@H]1CCCc2c1cnn2C(C)(C)C(=O)O)S(=O)(=O)c1cc(C(F)(F)F)cc(C(F)(F)F)c1` [Example 21-1a, 2-{(R)-4-[(3,5-Bis-trifluoromethyl-benzenesulfonyl)-methyl-amino]-4,5,6,7-tetrahydro-indazol-1-yl}-2-methyl-propionic acid] was tested. Which pIC50 did it give?
Its pIC50 is 6.56.

`CC(=O)Nc1cccc(S(=O)(=O)NC2CCCc3c2cnn3CC(=O)O)c1` (stereo not shown) [Example 22-1a, [4-(3-Acetylamino-benzenesulfonylamino)-4,5,6,7-tetrahydro-indazol-1-yl]-acetic acid] was tested. Which pIC50 did it give?
Its pIC50 is 7.10.

`CS(=O)(=O)Nc1cccc(S(=O)(=O)NC2CCCc3c2cnn3CC(=O)O)c1` (stereo not shown) [Example 23-1a, [4-(3-Methanesulfonylamino-benzenesulfonylamino)-4,5,6,7-tetrahydro-indazol-1-yl]-acetic acid] was tested. Which pIC50 did it give?
Its pIC50 is 7.40.

`CN([C@@H]1CCCc2c1cnn2CC(=O)O)S(=O)(=O)c1cc(N2CCCC2)cc(C(F)(F)F)c1` [Example 24-1a, {(R)-4-[Methyl-(3-pyrrolidin-1-yl-5-trifluoromethyl-benzenesulfonyl)-amino]-4,5,6,7-tetrahydro-indazol-1-yl}-acetic acid] was tested. Which pIC50 did it give?
Its pIC50 is 7.42.

How did the pIC50 turn out when `CC(C)N(C)c1cc(C(F)(F)F)cc(S(=O)(=O)N(C)[C@@H]2CCCc3c2cnn3CC(=O)O)c1` [Example 24-2a, ((R)-4-{[3-(Isopropyl-methyl-amino)-5-trifluoromethyl-benzenesulfonyl]-methyl-amino}-4,5,6,7-tetrahydro-indazol-1-yl)-acetic acid] was run?
The pIC50 was 7.34.
